Experimental data reported in patent publication US20220175699A1, “CO[…]-CLEAVABLE A[…] AND […]” (Ensysce Biosciences, Inc., priority 2019, published 2022).
Where two headings read alike, the source gives them in different places.

Columns and labels:
[1] = male Beagle dogs, fasted, PO 0.4 mg/kg
Procedure: (§1) Male Beagle dogs were fasted overnight through 4 hours postdose. Individual doses of all amphetamine and AM-9 (0.4 mg/kg) were calculated based on body weights taken on the day of each dosing. The liquid formulations were administered via oral gavage, 4 per group. Prior to withdrawing the gavage tube, the tube was flushed with approximately 10 mL of water.
(§2) Blood (approximately 2 mL) was collected from each animal predose and at 0.167, 0.333, 0.5, 0.75, 1, 2, 3, 4, 6, and 8 hours postdose and processed for plasma. Plasma samples were evaluated for amphetamine by LC-MS-MS Mass spectrometer (API 5000 AB Sciex Instruments).

[2] = Plasma amphetamine following PO administration of d-amphetamine, Compound AM-9 and Vyvanse to dogs (Example 7); conditions: male Beagle dogs, fasted
Procedure: as §1, with “amphetamine, AM-9” for “all amphetamine”, “Vyvanse” for “AM-9 (0.4 mg/kg)”
as §2

[3] = rats, fasted, IV 10 mg/kg Compound AM-9; 2, 15 and 60 min postdose
Procedure: The formulation was a clear solution. Animals were fasted overnight through 4 hours postdose prior to dosing, 4 animals per groups. Individual doses of AM-9 was calculated based on body weights taken on the day of dosing.
Blood was collected from a jugular vein into tubes containing K2EDTA anticoagulant. Blood (approximately 1 mL) was collected from each animal predose and at 2, 15 and 60 min postdose and processed for plasma. CSF was obtained at these same time periods. Plasma and CSF samples were evaluated for AM-9 by LC-MS-MS Mass spectrometer (API 5000 AB Sciex Instruments).

[4] = rats, fasted, PO 27.7 mg/kg Compound AM-9
Procedure: Animals were fasted overnight through 4 hours postdose prior to dosing, 4 animals per groups. Individual doses of AM-9 was calculated based on body weights taken on the day of dosing. […] Prior to withdrawing the gavage tube, the tube was flushed with approximately 2 mL of water.
Blood was collected from a jugular vein into tubes containing K2EDTA anticoagulant. Blood (approximately 1 mL) was collected from each animal predose and at 0.167, 0.333, 0.5, 0.667, 0.833 1, 2, 4, 5, and 8 hours postdose and processed for plasma. Plasma samples were evaluated for AM-9 and amphetamine by LC-MS-MS Mass spectrometer (API 5000 AB Sciex Instruments).

[5] = rats, fasted, IV 5 mg/kg Compound AM-9
Procedure: Animals were fasted overnight through 4 hours postdose prior to dosing, 4 animals per groups. Individual doses of AM-9 was calculated based on body weights taken on the day of dosing.
Blood was collected from a jugular vein into tubes containing K2EDTA anticoagulant. Blood (approximately 1 mL) was collected from each animal predose and at 0.167, 0.333, 0.5, 0.667, 0.833 1, 2, 4, and 7 hours postdose and processed for plasma. Plasma samples were evaluated for either AM-9 or amphetamine by LC-MS-MS Mass spectrometer (API 5000 AB Sciex Instruments).

[6] = male Beagle dogs, fasted, PO Compound AM-9
Procedure: as §1, with “of” for “of all amphetamine and”, “AM-9” for “AM-9 (0.4 mg/kg)”
Blood (approximately 2 mL) was collected from each animal predose and at 0.167, 0.333, 0.5, 0.75, 1, 2, 3, 4, 6, and 8 hours postdose and processed for plasma. Plasma samples were evaluated for AM-9 and amphetamine by LC-MS-MS Mass spectrometer (API 5000 AB Sciex Instruments).

[7] = Plasma amphetamine following PO Compound AM-9 0.6 mg/kg to rats without and with trypsin inhibitor nafamostat (Example 8); type: in vivo
Procedure: This example provides a comparison of the immediate release of amphetamine into plasma when Compound AM-9 at a dosage of 0.6 mg/kg is administered PO to fasted rats alone, or with 0.1 and 0.25 mg/kg trypsin inhibitor Nafamostat.
(§3) The formulation was a clear solution. Animals were either fasted overnight through 4 hours postdose or fed ad lib prior to dosing, 4 animals per groups. […] The liquid formulation was administered via oral gavage at […].
FIG. 8A depicts the mean plasma concentration of amphetamine over 8 hours after administration of Compound AM-9 at doses of 0.6 mg/kg alone and in combination with 0.1 mg/kg of Nafamostat and 0.25 mg/kg of Nafamostat. FIG. 8B depicts the mean plasma concentration of amphetamine over the first 2 hours after administration of Compound AM-9 at doses of 0.6 mg/kg alone and in combination with 0.1 mg/kg of Nafamostat and 0.25 mg/kg of Nafamostat.

[8] = Plasma amphetamine following PO Compound AM-9 6 mg/kg to rats without and with trypsin inhibitor nafamostat (Example 9); type: in vivo; conditions: fasted rats, PO Compound AM-9 6 mg/kg with 1, 2.5, 5 and 10 mg/kg Nafamostat vs alone
Procedure: This example provides a comparison of the immediate release of amphetamine into plasma when Compound AM-9 at a dosage of 6 mg/kg is administered PO to fasted rats alone, or with 1, 2.5, 5 and 10 mg/kg trypsin inhibitor Nafamostat.
as §3

[9] = fasted rats, PO Compound AM-9 0.6 mg/kg with 0.1 and 0.25 mg/kg Nafamostat vs alone

CC(=O)NCC(=O)N[C@@H](CCCNC(=N)N)C(=O)N[C@@H](C)Cc1ccccc1 [Compound AM-9, Amphetamine-arginine-glycine-acetate]
amphetamine Tmax (time to maximum plasma concentration) compared with administration of amphetamine [1]: the same Tmax
Tmax for peak plasma concentration of amphetamine compared with direct administration of amphetamine [2]: the same as that from direct administration of amphetamine
AM-9 crossing from plasma into the CSF [3]: very little AM-9 that crosses from plasma into the CSF
conversion of administered AM-9 to amphetamine [4]: majority of the administered AM-9 is immediately converted to amphetamine
peak plasma concentration (Cmax) of AM-9 relative to peak plasma concentration of amphetamine [4]: approximately half
conversion of AM-9 to amphetamine in the blood [5]: very little conversion of AM-9 to amphetamine in the blood
conversion of administered AM-9 to amphetamine [6]: majority of the administered AM-9 is immediately converted to amphetamine
peak plasma concentration of AM-9 relative to that of amphetamine [6]: less than half

N=C(N)c1ccc2cc(OC(=O)c3ccc(N=C(N)N)cc3)ccc2c1 [Nafamostat, 6-carbamimidoylnaphthalen-2-yl 4-(diaminomethyleneamino)benzoate]
effect on Cmax of amphetamine release from AM-9 [7, 9]: reduces the Cmax
effect on Tmax of amphetamine release from AM-9 [7, 9]: increases the Tmax
effect on release of amphetamine from Compound AM-9 from oral administration ([7]; rats, PO Compound AM-9 0.6 mg/kg alone and with 0.1 or 0.25 mg/kg Nafamostat, FIGS. 8A-8B): reduces the release of amphetamine
effect on Cmax of amphetamine release from AM-9 [8]: reduces the Cmax
effect on Tmax of amphetamine release from AM-9 [8]: increases the Tmax

CS(=O)(=O)O.CS(=O)(=O)O.C[C@@H](Cc1ccccc1)NC(=O)[C@@H](N)CCCCN [Vyvanse, reference compound]
Tmax for peak plasma amphetamine concentration [2]: 2 h
